Several values for one entry are separate records, joined by “and”; a condition that tells them apart may be missing. Identical values can stand only once. Like-named read-outs stand apart in the source and are kept apart here.

One data set in a line: in vivo. Particulars: female, Sprague-Dawley, rat. As for the experimental part: The samples were centrifuged at approximately 1,500×g (force) for 10 minutes at 2 to 8° C. to remove red blood cells and obtain ˜150 uL plasma. The plasma was divided into 2 aliquots and transferred to cryogenic vials and stored in a freezer at −80° C. prior to analysis.
For analysis, the samples were thawed on ice and mixed with 2 volumes of acetonitrile/0.5% acetic acid containing 8 ng/mL of camptothecin as internal standard. Precipitated protein was removed by centrifugation at 16,000×g for 10 min at 4° C. Sample supernatants (20 uL) were analyzed using a Phenomenex® 300 Å Jupiter 5 um 150×4.6 mm C18 HPLC column thermostatted at 40° C. using a gradient of 100 mM sodium phosphate, 3 mM heptane sulfonate, pH 4.0 (Buffer A) and 75% acetonitrile in water (Buffer B) at 1.0 mL/min. […] Sample elution was followed with a diode array detector and a fluorescence detector with excitation set at 370 nm and the emission set at 470 nm for the first 9 min followed by emission at 534 nm for the final 10 min. Concentrations were calculated by comparison of peak areas to standard curves of the conjugate (absorbance 380 nm), and SN-38 (fluorescence Ex: 370 nm; Em: 534 nm). […]
Plasma concentration versus time data for the conjugate were analyzed using a two-phase model where C(t)=A*exp(−αt)+B*exp(−βt) where A+B=dose/Vd. […]

The conditions of data set [1]: cited from earlier work.
For data set [2] the following is noted: ionization of the 10-OH; cited from earlier work.
The conditions of data set [3]: fold more active than irinotecan; cited from earlier work.
The conditions of data set [4]: cited from earlier work. The source holds these as a separate data set.
Data set [5] can be described thus: Pharmacokinetic model prediction for human using allometric scaling. Particulars: estimated by allometric scaling.

For `CCc1c2c(nc3ccc(O)cc13)-c1cc3c(c(=O)n1C2)COC(=O)[C@]3(O)CC` [SN-38, 7-ethyl-10-hydroxycamptothecin], in “in vivo”, the half-life was 15 min and the “kc1, elimination of free SN-38 from the plasma” value came to 2.77 h⁻¹. Also, the aqueous solubility in data set [1] (aqueous / water) is 18 µM and 17 µM. Besides, in data set [1] (in water), the aqueous solubility was 7 µg/mL. Besides, the pKa in data set [2] is recorded as about 8.6. Also, the “activity relative to irinotecan” value in data set [3] is about 1000 ×. Further, the “volume of distribution Vd, reported value” in data set [4] is 0.18 L/kg. In addition, in data set [5], the Vss is recorded as about 0.15 L/kg; the “kc1, elimination rate constant” value was about 0.7 h⁻¹; the “kc1 t1/2” value is about 60 min.

What is called half-life is the time in which the quantity being followed falls by half. By aqueous solubility is commonly meant how much of the substance goes into solution per volume. The pKa is the pH at which an ionisable group is half protonated. As usually defined, the Vss is the apparent volume that relates the amount in the body to the concentration in plasma or blood.

These data come from patent publication US10342792B2, “Slow-release conjugates of SN-38” (ProLynx LLC, priority 2013, dated 2019).
